Test results: ChEMBL document CHEMBL1122581, “Antiviral activity of C-5 substituted tubercidin analogues” (1984)
≈ marks a conversion by molar mass, not a printed value.

system: Vaccinia virus; assay: Concentration required to reduce vaccinia virus induced cytopathogenicity by 50% in primary rabbit kidney cell cultures.; assay type: functional; conditions: Orthopoxvirus vaccinia

Q: With `Nc1ncnc2c1c(Cl)c(Cl)n2C1O[C@H](CO)[C@@H](O)[C@H]1O` (some centres undefined) as the compound, how does the MIC read?
A: > 40 µg/mL

Q: Which MIC does the source give for `Nc1ncnc2c1ccn2[C@@H]1O[C@H](CO)[C@@H](O)[C@H]1O` [TUBERCIDIN] here?
A: 0.02 µg/mL (≈ 0.0751 µM)

Q: How did the MIC turn out when `N#C/C=C/c1cn(C2O[C@H](CO)[C@@H](O)[C@H]2O)c2ncnc(N)c12` (some centres undefined) was run?
A: 0.7 µg/mL (≈ 2.21 µM)

Q: With `Nc1ncnc2c1cc(Br)n2C1O[C@H](CO)[C@@H](O)[C@H]1O` (some centres undefined) as the compound, how does the MIC read?
A: 300 µg/mL (≈ 869 µM)

Q: Which MIC does the source give for `Nc1ncnc2c1c(Br)c(Br)n2C1O[C@H](CO)[C@@H](O)[C@H]1O` (some centres undefined) here?
A: 20 µg/mL (≈ 47.2 µM)

Q: Which MIC does the source give for `N#Cc1cn([C@@H]2O[C@H](CO)[C@@H](O)[C@H]2O)c2ncnc(N)c12` [TOYOCAMYCIN] here?
A: > 0.01 µg/mL

Q: For `Nc1ncnc2c1c(/C=C/Br)cn2C1O[C@H](CO)[C@@H](O)[C@H]1O` (some centres undefined), which MIC is on record?
A: > 1 µg/mL

Q: For `NC(=O)c1ncn([C@@H]2O[C@H](CO)[C@@H](O)[C@H]2O)n1` [RIBAVIRIN], which MIC is on record?
A: 10 µg/mL (≈ 40.9 µM)

Q: Which MIC does the source give for `Nc1nccc2c1ncn2[C@@H]1C[C@H](CO)[C@H](O)C1O` (some centres undefined) here?
A: 0.1 µg/mL (≈ 0.378 µM)

Q: With `COC(C)c1cn(C2O[C@H](CO)[C@@H](O)[C@H]2O)c2ncnc(N)c12` (some centres undefined) as the compound, how does the MIC read?
A: 0.7 µg/mL (≈ 2.16 µM)

Q: How did the MIC turn out when `CCCCc1cn(C2O[C@H](CO)[C@@H](O)[C@H]2O)c2ncnc(N)c12` (some centres undefined) was run?
A: > 40 µg/mL

Q: `CC(O)c1cn(C2O[C@H](CO)[C@@H](O)[C@H]2O)c2ncnc(N)c12` (some centres undefined) was tested. Which MIC did it give?
A: 0.7 µg/mL (≈ 2.26 µM)

Q: Which MIC does the source give for `NC(=O)c1cn([C@@H]2O[C@H](CO)[C@@H](O)[C@H]2O)c2ncnc(N)c12` [SANGIVAMYCIN] here?
A: 0.02 µg/mL (≈ 0.0647 µM)

Q: `Nc1ncnc2c1c(I)cn2[C@@H]1O[C@H](CO)[C@@H](O)[C@H]1O` [IODOTUBERCIDIN] was tested. Which MIC did it give?
A: 0.07 µg/mL (≈ 0.179 µM)

Q: Which MIC does the source give for `Nc1ncnc2c1c(Cl)cn2[C@@H]1O[C@H](CO)[C@@H](O)[C@H]1O` here?
A: > 1 µg/mL

Q: Which MIC does the source give for `Nc1ncnc2c1c(CCCO)cn2C1O[C@H](CO)[C@@H](O)[C@H]1O` (some centres undefined) here?
A: 2 µg/mL (≈ 6.17 µM)

Q: For `Nc1ncnc2c1c(Br)cn2[C@@H]1O[C@H](CO)[C@@H](O)[C@H]1O`, which MIC is on record?
A: 0.2 µg/mL (≈ 0.579 µM)

Q: For `C/C=C/Cc1cn(C2O[C@H](CO)[C@@H](O)[C@H]2O)c2ncnc(N)c12` (some centres undefined), which MIC is on record?
A: 0.7 µg/mL (≈ 2.19 µM)

system: Vaccinia virus; assay: Compound was tested for the concentration required to reduce vaccinia virus induced cytopathogenicity by 50% in primary rabbit kidney cell cultures; assay type: functional; conditions: Orthopoxvirus vaccinia

Q: Which MIC does the source give for `Nc1ncnc2c1ncn2C[C@@H](O)CO` here?
A: 70 µg/mL (≈ 335 µM)
